Results: patent US12692262B2, “Substituted ureas as orexin receptor agonists” (Merck Sharp & Dohme LLC, priority 2020, dated 2026)
pEC50: −log10 of the molar value.

Molecular target: T1, human OX2R (Homo sapiens, UniProt O43614)
T1 construct: expressed in transfected cells; host or cells: CHO (Chinese hamster ovary) cells grown under G418 selection
T1 sequence (O43614 1-444): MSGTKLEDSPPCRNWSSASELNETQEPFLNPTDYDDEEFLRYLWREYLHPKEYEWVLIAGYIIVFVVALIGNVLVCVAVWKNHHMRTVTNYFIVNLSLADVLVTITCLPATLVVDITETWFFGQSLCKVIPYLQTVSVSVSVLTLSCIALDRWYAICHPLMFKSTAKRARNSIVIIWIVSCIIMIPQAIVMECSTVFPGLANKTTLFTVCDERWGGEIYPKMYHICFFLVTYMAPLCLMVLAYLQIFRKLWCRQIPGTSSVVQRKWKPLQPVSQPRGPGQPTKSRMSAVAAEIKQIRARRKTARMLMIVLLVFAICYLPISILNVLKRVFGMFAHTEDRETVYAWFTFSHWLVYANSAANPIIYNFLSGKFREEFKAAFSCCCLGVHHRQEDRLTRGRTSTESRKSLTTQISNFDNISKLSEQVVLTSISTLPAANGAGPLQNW
Assay: IPOne (IP-1 accumulation) assay in CHO cells expressing human OX2R
Type: cell-based
Settings: for pEC50: CHO cells expressing human OX2R, IP-One assay, 2 h incubation, four parameter logistic fit, read-out: OX2R Potency, EC50; for % of maximum agonist effect (relative to Orexin A): percent effect vs mean max effect of a reference compound at 1 uM (100% activity vs Orexin A), human OX2R
From the text: The utility of the compounds in accordance with the present invention as orexin receptor OX1R and/or OX2R agonists may be readily determined without undue experimentation by methodology well known in the art. Both the OX1R and/or OX2R G-coupled protein receptors (GPCRs) couple through the Gαq signaling pathway, which ultimately promotes calcium mobilization via inositol triphosphate (IP3) production. […] The utility of the compounds in accordance with the present invention as orexin receptor OX1R and/or OX2R agonists may be determined utilizing this assay.
In a typical experiment, the OX1 and OX2 receptor agonist activity is determined in accordance with the following general experimental method. Chinese hamster ovary (CHO) cells expressing human OX1R and/or the human OX2R were grown in Iscove's modified DMEM containing glutaMAX™, 1% G418, 100 U/mL penicillin, 100 μg/mL streptomycin and 10% heat-inactivated qualified fetal bovine serum (FBS). […] During this incubation, IP-one detection reagents were prepared (38:1:1 lysis buffer:D2:AB-cryptate reagents).
For each compound, data were fit to a four parameter logistic fit (ActivityBase software) and the EC50 was reported as the inflection point of the resulting curve. […] The intrinsic orexin receptor agonist activity of a compound which may be used in the present invention may be determined by these assays.

pEC50	% of maximum agonist effect (relative to Orexin A) [%]	Structure (SMILES)
7.76	97.3	CCN(C(=O)NCC(N(C)C)C(F)(F)F)[C@H](C)c1cccc(-c2cc(OC)c3nccn3c2)c1 (stereo partly drawn) [Example 1-7, 3-(2-(dimethylamino)-3,3,3-trifluoropropyl)-1-ethyl-1-((R)-1-(3-(8-methoxyimidazo[1,2-a]pyridin-6-yl)phenyl)ethyl)urea]
9.10	96.5	CC[C@H](CCC(F)(F)F)NC(=O)N(CC)Cc1ccc(OC)c(-c2cc(OC)c3nccn3c2)c1 [Example 1-8, (R)-1-ethyl-1-(4-methoxy-3-(8-methoxyimidazo[1,2-a]pyridin-6-yl)benzyl)-3-(6,6,6-trifluorohexan-3-yl)urea]
9.22	99.8	CCN(C(=O)NC(C)C1CCCC(F)(F)C1)[C@H](C)c1cccc(-c2cn3ccnc3c(OC)n2)c1 (stereo partly drawn) [Example 1-9, 3-(1-(3,3-difluorocyclohexyl)ethyl)-1-ethyl-1-((R)-1-(3-(8-methoxyimidazo[1,2-a]pyrazin-6-yl)phenyl)ethyl)urea]
8.08	101.0	CCN(C(=O)NC(C#N)C1CCCC1)[C@H](C)c1cccc(-c2cn3ccnc3c(OC)n2)c1 (stereo partly drawn) [Example 1-10, 3-(cyano(cyclopentyl)methyl)-1-ethyl-1-((R)-1-(3-(8-methoxyimidazo[1,2-a]pyrazin-6-yl)phenyl)ethyl)urea]
7.70	98.0	CCOC(=O)CC(NC(=O)N(CC)[C@H](C)c1cccc(-c2cn3ccnc3c(OC)n2)c1)C(F)(F)F (stereo partly drawn) [Example 1-11, ethyl 3-(3-ethyl-3-((R)-1-(3-(8-methoxyimidazo[1,2-a]pyrazin-6-yl)phenyl)ethyl)ureido)-4,4,4-trifluorobutanoate]
7.70	99.1	CCN(C(=O)NC(C#N)c1cccc(C(F)(F)F)c1)[C@H](C)c1cccc(-c2cn3ccnc3c(OC)n2)c1 (stereo partly drawn) [Example 1-12, 3-(cyano(3-(trifluoromethyl)phenyl)methyl)-1-ethyl-1-((R)-1-(3-(8-methoxyimidazo[1,2-a]pyrazin-6-yl)phenyl)ethyl)urea]
6.84	80.7	CCN(C(=O)NC(CN(C)C)C(F)(F)F)[C@H](C)c1cccc(-c2cc(OC)n3nccc3c2)c1 (stereo partly drawn) [Example 1-13, 3-(3-(dimethylamino)-1,1,1-trifluoropropan-2-yl)-1-ethyl-1-((R)-1-(3-(7-methoxypyrazolo[1,5-a]pyridin-5-yl)phenyl)ethyl)urea]
7.73	101.3	CCN(C(=O)NC(CC#N)C(F)(F)F)[C@H](C)c1cccc(-c2cn3ccnc3c(OC)n2)c1 (stereo partly drawn) [Example 1-14, 3-(3-cyano-1,1,1-trifluoropropan-2-yl)-1-ethyl-1-((R)-1-(3-(8-methoxyimidazo[1,2-a]pyrazin-6-yl)phenyl)ethyl)urea]
6.57	99.7	CCN(C(=O)NC(C1CN(C)C1)C(F)(F)F)[C@H](C)c1cccc(-c2cn3ccnc3c(OC)n2)c1 (stereo partly drawn) [Example 1-15, 1-ethyl-1-((R)-1-(3-(8-methoxyimidazo[1,2-a]pyrazin-6-yl)phenyl)ethyl)-3-(2,2,2-trifluoro-1-(1-methylazetidin-3-yl)ethyl)urea]
8.55	100.1	CCN(C(=O)NC(Cn1nccn1)C(F)(F)F)[C@H](C)c1cccc(-c2cn3ccnc3c(OC)n2)c1 (stereo partly drawn) [Example 1-16, 1-ethyl-1-((R)-1-(3-(8-methoxyimidazo[1,2-a]pyrazin-6-yl)phenyl)ethyl)-3-(1,1,1-trifluoro-3-(2H-1,2,3-triazol-2-yl)propan-2-yl)urea]
7.98	98.7	CCN(C(=O)NC(Cn1ccnn1)C(F)(F)F)[C@H](C)c1cccc(-c2cn3ccnc3c(OC)n2)c1 (stereo partly drawn) [Example 1-17, 1-ethyl-1-((R)-1-(3-(8-methoxyimidazo[1,2-a]pyrazin-6-yl)phenyl)ethyl)-3-(1,1,1-trifluoro-3-(1H-1,2,3-triazol-1-yl)propan-2-yl)urea]
8.17	100.1	CCN(C(=O)N[C@@H](C)C(F)(F)F)[C@@H](c1cc(-c2cn3ccnc3c(OC)n2)c(OC)cn1)C(F)(F)F [Example 2-1, 1-ethyl-1-((S)-2,2,2-trifluoro-1-(5-methoxy-4-(8-methoxyimidazo[1,2-a]pyrazin-6-yl)pyridin-2-yl)ethyl)-3-((S)-1,1,1-trifluoropropan-2-yl)urea]
8.43	99.1	CCN(C(=O)NC(CC(C)C(F)(F)F)C(F)(F)F)[C@H](C)c1cccc(-c2cn3ccnc3c(OC)n2)c1 (stereo partly drawn) [Example 2-2, 1-ethyl-3-(1,1,1,5,5,5-hexafluoro-4-methylpentan-2-yl)-1-((R)-1-(3-(8-methoxyimidazo[1,2-a]pyrazin-6-yl)phenyl)ethyl)urea]
8.34	100.6	CCC(CC(C)C(F)(F)F)NC(=O)N(CC)[C@H](C)c1cccc(-c2cn3ccnc3c(OC)n2)c1 (stereo partly drawn) [Example 2-3, 1-ethyl-1-((R)-1-(3-(8-methoxyimidazo[1,2-a]pyrazin-6-yl)phenyl)ethyl)-3-(6,6,6-trifluoro-5-methylhexan-3-yl)urea]
8.37	100.6	CCN(C(=O)NC(C1CC(F)(F)CC(C)(C)O1)C(F)(F)F)[C@@H](c1cc(-c2cn3cc(C)nc3c(OC)n2)c(OC)cn1)C(F)(F)F (stereo partly drawn) [Example 2-4, 3-(1-(4,4-difluoro-6,6-dimethyltetrahydro-2H-pyran-2-yl)-2,2,2-trifluoroethyl)-1-ethyl-1-((S)-2,2,2-trifluoro-1-(5-methoxy-4-(8-methoxy-2-methylimidazo[1,2-a]pyrazin-6-yl)pyridin-2-yl)ethyl)urea]
7.97	100.7	CCN(C(=O)NC(C1CCC1)C(F)(F)F)[C@@H](c1cc(-c2cn3ccnc3c(OC)n2)c(OC)cn1)C(F)(F)F (stereo partly drawn) [Example 2-5, 3-(1-cyclobutyl-2,2,2-trifluoroethyl)-1-ethyl-1-((S)-2,2,2-trifluoro-1-(5-methoxy-4-(8-methoxyimidazo[1,2-a]pyrazin-6-yl)pyridin-2-yl)ethyl)urea]
7.92	101.5	CCN(C(=O)NC(C1CC1)C(F)(F)F)C(c1cc(-c2cn3ccnc3c(OC)n2)c(OC)cn1)C(F)(F)F (stereo not drawn) [Example 2-6, 3-(1-cyclopropyl-2,2,2-trifluoroethyl)-1-ethyl-1-(2,2,2-trifluoro-1-(5-methoxy-4-(8-methoxyimidazo[1,2-a]pyrazin-6-yl)pyridin-2-yl)ethyl)urea]
7.90	100.1	CCN(C(=O)NC(C(F)F)C1CC1)[C@@H](c1cc(-c2cn3ccnc3c(OC)n2)c(OC)cn1)C(F)(F)F (stereo partly drawn) [Example 2-7, 3-(1-cyclopropyl-2,2-difluoroethyl)-1-ethyl-1-((S)-2,2,2-trifluoro-1-(5-methoxy-4-(8-methoxyimidazo[1,2-a]pyrazin-6-yl)pyridin-2-yl)ethyl)urea]
